This is an account of results in patent publication US20190015400A1, “Antifungal Compositions” (priority 2017, published 2019).

Structures are written as SMILES.

Series [1] concerns C. glabrata ATCC 2001 (strain H) biofilm. The experiment in a line: Biofilm disruption assay (XTT, SMIC90), POS and EBA. It is filed as cell-based, Candida glabrata. How it is done: (§1) Biofilm disruption assays. […] Biofilm assays were performed in 96-well plates using XTT [2,3-bis(2-methoxy-4-nitro-5-sulfophenyl)-2H-tetrazolium-5-carboxanilide] to measure the viability of the biofilm as previously described. An overnight culture of yeast was grown at 35° C. in YEPD medium with shaking at 200 rpm. The overnight culture was diluted in RPMI 1640 medium to an OD600 between 0.12 and 0.15 to make a working stock. Working stock was transferred to the 96-well plate in 100 μL aliquots, leaving one column empty for the sterile control. The plates were incubated at 37° C. for 24 h to allow formation of the biofilm. The medium and planktonic cells from the plate were then aspirated. PBS was then used to wash any remaining planktonic cells off of the biofilm wells. 100 μL of PBS was aliquoted into wells and then removed. The wells were washed 3 times with PBS. […] Plates were incubated at 37° C. for 24 h. Finally, the plates were washed 3 times with PBS before adding 100 μL of XTT dye. The XTT was prepared by dissolving XTT at 0.5 mg/mL concentration in sterile PBS. Before adding to a plate, 1 μL of 10 mM menadione in acetone was added to 10 mL of the 0.5 mg/mL solution of XTT. After addition of XTT (containing menadione), the plates were incubated at 3 h at 37° C. in the dark. 80 μL of liquid from each well was transferred to a new plate. Plates were then read with a SpectraMax M5 plate reader (Molecular Devices, Sunnyvale, Calif., USA) for absorbance at 450 nm. For these experiments, we determined the sessile MIC (SMIC90), which is defined as the drug concentration required to inhibit the metabolic activity of biofilm by 90% compared to the growth control. The SMIC90 values were used to calculate the FICI as described above (TABLE 10). The plates used to determine the SMIC90 are provided in FIGS. 91A-H. Each assay was performed in duplicate.

For series [2], the system named is C. albicans ATCC 64124 (strain F). The experiment in a line: Time-kill assay, azoles + compound 2. It is filed as cell-based, Candida albicans. The note with it: drug alone at the concentration of the 8×MICcombo sample; 24 h. On the procedure:
Each sample was incubated at 35° C. with shaking at 200 rpm. At various time points (0, 3, 6, 9, 12, and 24 h), 100 μL aliquots were taken from each sample and serially diluted (10-fold dilutions) in sterile ddH2O. 100 μL of each dilution was spread onto PDA plates and incubated at 35° C. for 48 h before colony counts were determined (FIGS. 2A-B). At the end of the 24-h experiment, 50 μL of 1 mM sterile resazurin solution was added to each sample for visual comparison of growth. Each experiment was performed in duplicate.

The test system of another series is HEK-293 cells. As to the kind of experiment: Mammalian cytotoxicity assay, azoles and compound 2. It is filed as cell-based, human. The text has this: (§2) David K. Orren (University of Kentucky, Lexington, Ky.) and Prof. David J. Feola (University of Kentucky, Lexington, Ky.), respectively.
Another series relates to BEAS-2B cells. The description is as above. It is filed as cell-based, human.
Source text: as §2

In a further series the test system is J774A.1 cells. The series is described as above.
Source text: as §2

Series [3] concerns C. albicans ATCC 10231 (strain B). As to the kind of experiment: Time-kill assay, POS and EBA. It is filed as cell-based, Candida albicans. The note with it: drug alone (POS at concentration used in MICcombination; NYT, AMB at 1×MIC), inoculum 10^5. On the procedure:
(§3) The protocol for time-kill assays followed methods previously described with minor modifications. Yeast cultures were grown overnight in YEPD medium at 35° C. with shaking at 200 rpm. A working stock of fungal cells was made by diluting cultures in 1640 medium to an OD600 of 0.125 (˜1×10^6 CFU/mL). From the working stock, 100 μL of cells was added to 4.9 mL of RPMI 1640 medium in sterile culture tubes, making the starting fungal cell concentration ˜1×10^5 CFU/mL. Drug was then added to the fungal cells. […] Treated fungal cultures were incubated in the culture tubes at 35° C. with 200 rpm shaking for 24 h. Samples were aliquoted from the different treatments at regular time points (0, 3, 6, 9, 12, and 24 h) and plated in duplicate. For each time point, cultures were vortexed, 100 μL of culture was aspirated, and 10-fold serial dilutions were made in sterile ddH2O. From the appropriate dilutions, 100 μL of fungal suspension was spread on PDA plates and incubated at 35° C. for 48 h before colony counts were determined. At 24 h, 50 μL of 1 mM resazurin in phosphate buffered saline (PBS) was added to the treatments and incubated at 35° C. with 200 rpm shaking for 2 h in the dark for visual inspection. […] Experiments were performed in duplicate.

The subject of series [4] is C. albicans ATCC 64124 (strain F). As to the kind of experiment: MIC and checkerboard assay, azoles + compounds 1-5. The conditions noted are these: combination compound 2 + POS. The series is classed as cell-based, Candida albicans. On the procedure:
These compounds were serially diluted (two-fold dilutions) horizontally on the plate in 100 μL of RPMI medium. A diluted yeast culture (25 μL of a fungal stock with OD600 of 0.125 in 10 mL of RPMI medium, which achieves a final inoculum size of around 1-5×10^3 CFU/mL) was plated across the plate (100 μL per well), making a final volume of 200 μL total per well.
The appropriate range of concentrations for each compound was determined based on their corresponding MIC values against each fungal strain. The inoculum size for yeast and filamentous fungi were the same as in the MIC experiments described in section 2.2. The 96-well plates were incubated at 35° C. for 48 h for yeasts and 72 h for the Aspergillus strain before visual inspection for growth. […] The combinational effect of the two tested compounds were considered synergistic (abbreviated SYN) if FICI<0.5, additive (abbreviated ADD) if 0.5<FICI<4, and antagonistic if FICI>4 (TABLES 2-4).

Series [5] relates to C. glabrata ATCC 2001 (strain H). The experiment in a line: Time-kill assay, POS and EBA. The note with it: drug alone (POS at concentration used in MICcombination; NYT, AMB at 1×MIC), inoculum 10^5. It is filed as cell-based, Candida glabrata. How it is done: as §3
Series [6] deals with C. albicans ATCC 64124 (strain F) biofilm. The experiment in a line: Biofilm disruption assay (XTT, SMIC90), POS and EBA. The series is classed as cell-based, Candida albicans. The conditions noted are these: drug alone. How it is done: as §1
In general terms: Tetrazolium dyes change colour on reduction, which living cells bring about.

Series [7] relates to C. albicans ATCC 10231 (strain B) biofilm. Described as above. The note with it: drug alone. It is filed as cell-based, Candida albicans. How it is done: as §1
Where [8] appears, read: POS 16 μg/mL + 32 μg/mL compound 2.

Take `CC[C@@H]([C@H](C)O)n1ncn(-c2ccc(N3CCN(c4ccc(OC[C@@H]5CO[C@@](Cn6cncn6)(c6ccc(F)cc6F)C5)cc4)CC3)cc2)c1=O` [POS, posaconazole]: in series [1] (combination POS + EBA, SMIC90 of the labelled drug), the SMIC90 combo is 0.06 µg/mL. The SMIC90 in series [1] (drug alone), in [6] and in series [7] was over 32 µg/mL in each case. The “increase in CFU/mL” value in [2] is on record as “about 1 order of magnitude”. In addition, the cell survival in the series with HEK-293 cells (POS 1 μg/mL + 32 μg/mL compound 2) is 80±8%; in the series on HEK-293 cells (setting [8]) it was 40±6%; in the series on HEK-293 cells (drug alone at 16 μg/mL) it was “around 45±12%”; in the series with BEAS-2B cells (POS 8 μg/mL + 32 μg/mL compound 2), 71±11%; in the series on BEAS-2B cells (setting [8]), 38±6%; in the series with J774A.1 cells (drug alone at 8 μg/mL), 80±9%. In the series on J774A.1 cells (drug alone at 16 μg/mL), this molecule gave a cell survival of about 46±3%. Besides, the “CFU/mL at 24 h” value in [3] and in series [5] was 10^8 CFU/mL in each case. The MIC in combination in series [4] (MIC of the labelled drug) came out at 4 mg/L. The “fold reduction in MIC (combination vs alone)” value in series [4] (reduction for the labelled drug) is reported as 8 fold.
